In ChEMBL document CHEMBL3580603, “Natural therapeutic agents for neurodegenerative diseases from a traditional herbal medicine Pongamia pinnata (L.) Pierre” (Bioorg Med Chem Lett, 2014):

Experiments:
[1] = Cytotoxicity against mouse BV2 cells assessed as reduction of cell viability at IC50 after 24 hrs by MTT assay; assay type: cell-based; details: bv-2, 24 h
BV-2 = assay: Anti-neuroinflammatory activity against mouse BV2 cells assessed as inhibition of LPS-induced nitric oxide production after 24 hrs by Griess assay; assay type: functional, cell-based; details: BV-2, 24 h

| IC50 (BV-2) [µM] | Structure (SMILES) | Activity [1] |
| --- | --- | --- |
| > 100 | COc1ccc(-c2coc3c(O)c(O)ccc3c2=O)cc1O | Non-toxic |
| > 100 | O=c1c(-c2ccc3c(c2)OCO3)coc2cc(O)ccc12 [PSEUDOBAPTOGENIN] | Non-toxic |
| > 100 | COc1cc(O)cc(-c2oc3c(ccc4occc43)c(=O)c2OC)c1 | Non-toxic |
| > 100 | COc1ccc(-c2coc3cc(OCC=C(C)C)ccc3c2=O)cc1 | Non-toxic |
| > 100 | COc1cccc(-c2cc(=O)c3ccc4occc4c3o2)c1 | Non-toxic |
| > 100 | COc1cc(OC)c(Cl)c(-c2cc(=O)c3ccc4occc4c3o2)c1Cl | Non-toxic |
| 78.8 | CC1(C)C=Cc2c(ccc3c2O[C@H](c2ccc4c(c2)OCO4)CC3=O)O1 | Non-toxic |
| 14.1 | COc1ccc2c(=O)c(OC)c(-c3ccc4c(c3)OCO4)oc2c1 [DEMETHOXYKANUGIN] | Non-toxic |
| 87.7 | COc1ccc(OC)c(-c2cc(=O)c3ccc4occc4c3o2)c1 | Non-toxic |
| > 100 | COc1c(-c2ccc3c(c2)OCO3)oc2c3c(ccc2c1=O)OC(C)(C)C=C3 [PONGACHROMENE] | Non-toxic |
| > 100 | COc1ccc(-c2coc3cc(O)ccc3c2=O)cc1 [FORMONONETIN] | Non-toxic |
| 5.98 | COc1cc2occc2c2oc(-c3ccccc3)cc(=O)c12 | Non-toxic |
| 22.7 | CC1(C)CC[C@]2(C(=O)O)CC[C@]3(C)[C@H](CC[C@@H]4[C@@]5(C)CC[C@H](O)C(C)(C)[C@@H]5CC[C@]43C)[C@H]2[C@H]1O | Non-toxic |
| > 100 | COc1c2ccoc2cc2oc(-c3ccccc3)cc(=O)c12 [PINNATIN] | Non-toxic |
| 50.9 | COc1ccc(-c2coc3c(O)c(OC)ccc3c2=O)cc1 [RETUSIN 7-METHYL ETHER] | Non-toxic |
| > 100 | COc1c2ccoc2cc2oc(-c3ccc4c(c3)OCO4)cc(=O)c12 | Non-toxic |
| 6.56 | CC1(C)C=Cc2c(ccc(C(=O)/C=C/c3ccc4c(c3)OCO4)c2O)O1 | Non-toxic |
| > 100 | COc1ccc(-c2coc3c(OC)c(O)ccc3c2=O)cc1 | Non-toxic |
| 3.54 | CC1(C)C=Cc2c(ccc(C(=O)/C=C/c3ccccc3)c2O)O1 [LONCHOCARPIN] | Non-toxic |
| > 100 | CN1CC[C@@H](O)C[C@H]1C(=O)O | Non-toxic |
| > 100 | COc1ccc2c(=O)c(OC)c(-c3cc(OC)c4c(c3)OCO4)oc2c1 | Non-toxic |
| 45.7 | O=c1cc(-c2ccc3c(c2)OCO3)oc2c1ccc1occc12 [PONGAGLABRONE] | Non-toxic |
| > 100 | COc1cc(OC)cc(-c2cc(=O)c3ccc4occc4c3o2)c1 | Non-toxic |
| > 100 | CC1(C)C=Cc2cc(C(=O)/C=C/c3ccccc3)c(O)cc2O1 [ISOLONCHOCARPIN] | Non-toxic |

| Structure (SMILES) | IC50 (BV-2) [µM] | Activity [1] |
| --- | --- | --- |
| COc1c(-c2ccccc2)oc2c(ccc3occc32)c1=O [KARANJIN] | > 100 | Non-toxic |
| O=c1cc(-c2ccccc2)oc2c1ccc1occc12 [LANCEOLATIN B] | 20.6 | Non-toxic |
| COc1ccc2c(=O)c(OC)c(-c3ccc(OC)c(OC)c3)oc2c1 [FISETIN TETRAMETHYL ETHER] | 28.5 | Non-toxic |
| COc1c(-c2ccc3c(c2)OCO3)oc2c(ccc3occc32)c1=O [PONGAPIN] | > 100 | Non-toxic |
| C=C(C)[C@@H]1CC[C@]2(C(=O)O)CC[C@]3(C)[C@H](CC[C@@H]4[C@@]5(C)CCC(=O)C(C)(C)[C@@H]5CC[C@]43C)[C@@H]12 [BETUNOLIC ACID] | > 100 | Non-toxic |
